Read-outs that look alike come from different tables or passages of the source.
Assays:
Format in all cases: in vivo
[1] = tested on: Beet Armyworm (BAW) (Spodoptera exigua); assay: Bioassay on beet armyworm (BAW), 128-well diet tray assay; settings: Spodoptera exigua, read-out: % Mortality BAW 50 μg/cm^2
[2] = tested on: Corn Earworm (CEW) (Helicoverpa zea); assay: Bioassay on corn earworm (CEW), 128-well diet tray assay; settings: Helicoverpa zea, read-out: % Mortality CEW 50 μg/cm^2
How it was run: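 Larvae in a 128-well diet tray were held at 25° C under 14:10 light-dark for five to seven days. Percent mortality was scored per well and averaged over eight wells, then reported on a rating scale.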

[3] = tested on: Green Peach Aphid (GPA) (Myzus persicae); assay: Bioassay on green peach aphid (GPA), foliar spray on cabbage seedlings; settings: read-out: % Mortality GPA 200 ppm
Protocol: Certain molecules disclosed in this document were tested against GPA using procedures described in the following example. In the reporting of the results, the “GPA Rating Table” was used (See Table Section).
Cabbage seedlings grown in 3-inch pots, with 2-3 small (3-5 cm) true leaves, were used as test substrate. The seedlings were infested with 20-50 GPA (wingless adult and nymph stages) one day prior to chemical application. Four pots with individual seedlings were used for each treatment. Test compounds (2 mg) were dissolved in 2 mL of acetone/methanol (1:1) solvent, forming stock solutions of 1000 ppm test compound. […] A hand-held aspirator-type sprayer was used for spraying a solution to both sides of […] leaves until runoff. Reference plants (solvent check) were sprayed with the diluent only containing 20% by volume of acetone/methanol (1:1) solvent. Treated plants were held in a holding room for three days at approximately 25° C. and ambient relative humidity (RH) prior to grading. Evaluation was conducted by counting the number of live aphids per plant under a microscope. […] Corrected % Control=100*(X−Y)/X • where • X=No. of live aphids on solvent check plants and • Y=No. of live aphids on treated plants
The results are indicated in the table entitled “Table 5: Biological Results” (See Table Section).

Compound	mortality at 50 µg/cm2 ([1]; beet armyworm, 50 μg/cm^2)	mortality at 50 µg/cm2 ([2]; corn earworm, 50 μg/cm^2)	mortality at 200 ppm ([3]; green peach aphid, 200 ppm)	mortality at 50 µg/cm2 [1]	mortality at 50 µg/cm2 [2]	mortality at 200 ppm [3]
COc1cccc(N2CCS/C2=N\N=C\c2ccc(-c3ncn(-c4ccc(OC(F)(F)F)cc4)n3)cc2)c1 [Compound 147C]	50 to 100%	50 to 100%	0 to 80%			
COc1cc(C)c(/N=C(/N/N=C/c2ccc(-c3ncn(-c4ccc(OC(F)(F)F)cc4)n3)cc2)SCC(=O)NCCCN)c(C)c1 [Compound 64C]	50 to 100%	50 to 100%	0%			
FC(F)(F)Oc1ccc(-n2cnc(-c3ccc(/C=N/N=C4\SCCN4c4c(Cl)cccc4C(F)(F)F)cc3)n2)cc1 [Compound 149C]	50 to 100%	50 to 100%	0%			
Cc1cccc(C)c1/N=C(/N/N=C/c1ccc(-c2ncn(-c3ccc(OC(F)(F)F)cc3)n2)cc1)SCOC(=O)C1CCCC1 [Compound 35C]	50 to 100%	50 to 100%	0 to 80%			
Cc1ncccc1N1CCCS/C1=N\N=C\c1ccc(-c2ncn(-c3ccc(OC(F)(F)F)cc3)n2)cc1 [Compound 205C]	50 to 100%	50 to 100%	0 to 80%			
Cc1cccc(C)c1-n1c(C)cs/c1=N\N=C\c1ccc(-c2ncn(-c3ccc(OC(F)(F)F)cc3)n2)cc1 [Compound 175C]	50 to 100%	50 to 100%	0%			
Cc1cccc(C)c1N1CCS/C1=N\N=C\c1ccc(-c2ncn(-c3ccc(OC(F)(F)F)cc3)n2)cc1 [Compound 142C]	50 to 100%	50 to 100%	0%			
COc1cc(C)c(-n2c(C)cs/c2=N\N=C\c2ccc(-c3ncn(-c4ccc(OC(F)(F)F)cc4)n3)cc2)c(C)c1 [Compound 172C]	50 to 100%	50 to 100%	0%			
CCN(CC)c1ccc(-c2cs/c(=N\N=Cc3ccc(-c4ncn(-c5ccc(OC(F)(F)F)cc5)n4)cc3)n2-c2c(C)cccc2C)cc1 [Compound 74C]	50 to 100%	50 to 100%	0%			
Cc1cc(C)c(N2CCCS/C2=N\N=C\c2ccc(-c3ncn(-c4ccc(OC(F)(F)F)cc4)n3)cc2)c(C)c1 [Compound 184C]	50 to 100%	50 to 100%	0%			
CC(C)Cc1ccccc1N1CCCS/C1=N\N=C\c1ccc(-c2ncn(-c3ccc(OC(F)(F)F)cc3)n2)cc1 [Compound 193C]	50 to 100%	50 to 100%	0 to 80%			
Cc1cccnc1N1CCCS/C1=N\N=C\c1ccc(-c2ncn(-c3ccc(OC(F)(F)F)cc3)n2)cc1 [Compound 198C]	50 to 100%	50 to 100%	0%			
COc1cc(C)c(N2/C(=N/N=C/c3ccc(-c4ncn(-c5ccc(OC(F)(F)F)cc5)n4)cc3)SCC2(C)O)c(C)c1 (stereo not drawn) [Compound 255C]	50 to 100%	50 to 100%	0%			
COc1cccc(N2CCCS/C2=N\N=C\c2ccc(-c3ncn(-c4ccc(OC(F)(F)F)cc4)n3)cc2)c1 [Compound 206C]	50 to 100%	50 to 100%	0%			
Cc1cccc(C)c1/N=C(/N/N=C/c1ccc(-c2ncn(-c3ccc(OC(F)(F)F)cc3)n2)cc1)SCc1ccc(OC(F)(F)F)cc1 [Compound 8C]	50 to 100%	50 to 100%	0 to 80%			
Cc1cccc(Cl)c1N1CCCS/C1=N\N=C\c1ccc(-c2ncn(-c3ccc(OC(F)(F)F)cc3)n2)cc1 [Compound 196C]	50 to 100%	50 to 100%	0%			

Compound	mortality at 50 µg/cm2 ([1]; beet armyworm, 50 μg/cm^2)	mortality at 50 µg/cm2 ([2]; corn earworm, 50 μg/cm^2)	mortality at 200 ppm ([3]; green peach aphid, 200 ppm)	mortality at 50 µg/cm2 [1]	mortality at 50 µg/cm2 [2]	mortality at 200 ppm [3]
Cc1cccnc1N1C(=O)CS/C1=N\N=C\c1ccc(-c2ncn(-c3ccc(OC(F)(F)F)cc3)n2)cc1 [Compound 117C]	50 to 100%	50 to 100%	0%			
CC(C)c1ccccc1N1/C(=N/N=C/c2ccc(-c3ncn(-c4ccc(OC(F)(F)C(F)(F)F)cc4)n3)cc2)SCC1(C)O (stereo not drawn) [Compound 262C]	50 to 100%	50 to 100%	0 to 80%			
CCc1ccccc1N1C(=O)CS/C1=N\N=C\c1ccc(-c2ncn(-c3ccc(OC(F)(F)F)cc3)n2)cc1 [Compound 94C]	50 to 100%	50 to 100%	0%			
CC(C)c1ccccc1N1C(=NN=Cc2ccc(-c3ncn(-c4ccc(OC(F)(F)F)cc4)n3)cc2)SCC1C (stereo in doubt) [Compound 155C, (Z)-3-(2-isopropylphenyl)-4-methyl-2-((E)-(4-(1-(4-(trifluoromethoxy)phenyl)-1H-1,2,4-triazol-3-yl)benzylidene)hydrazono)thiazolidine]	50 to 100%	50 to 100%	0%			
Cc1cc(C)c(N2CCS/C2=N\N=C\c2ccc(-c3ncn(-c4ccc(OC(F)(F)F)cc4)n3)cc2)c(C)c1 [Compound 139C]	50 to 100%	50 to 100%	0 to 80%			
COc1cc(C)c(/N=C(/N/N=C/c2ccc(-c3ncn(-c4ccc(OC(F)(F)F)cc4)n3)cc2)SCOC(=O)C2CCCC2)c(C)c1 [Compound 43C]	50 to 100%	50 to 100%	0 to 80%			
CCc1cccc(C)c1N1/C(=N/N=C/c2ccc(-c3ncn(-c4ccc(OC(F)(F)F)cc4)n3)cc2)SCC1C (stereo not drawn) [Compound 156C]	50 to 100%	50 to 100%	0 to 80%			
Fc1cccc(F)c1N1CCCS/C1=N\N=C\c1ccc(-c2ncn(-c3ccc(OC(F)(F)F)cc3)n2)cc1 [Compound 189C]	50 to 100%	50 to 100%	0 to 80%			
COc1ccc(C(C)/N=C(/N/N=C/c2ccc(-c3ncn(-c4ccc(OC(F)(F)F)cc4)n3)cc2)SCC(=O)O)cc1F (stereo not drawn) [Compound 53C]	0 to 50%	0%	0 to 80%			
CCc1cccc(C)c1N1CCCS/C1=N\N=C\c1ccc(-c2ncn(-c3ccc(OC(F)(F)F)cc3)n2)cc1 [Compound 180C]	50 to 100%	50 to 100%	0 to 80%			
CC(C)c1ccccc1N1/C(=N/N=C/c2ccc(-c3ncn(-c4ccc(C(F)(C(F)(F)F)C(F)(F)F)cc4)n3)cc2)SCC1(C)O (stereo not drawn) [Compound 260C]	50 to 100%	50 to 100%	0%			
CCC(C)c1ccccc1N1/C(=N/N=C/c2ccc(-c3ncn(-c4ccc(OC(F)(F)F)cc4)n3)cc2)SCC1(C)O (stereo not drawn) [Compound 243C]	50 to 100%	50 to 100%	0 to 80%			
COc1cc(C)c(/N=C(/N/N=C/c2ccc(-c3ncn(-c4ccc(OC(F)(F)F)cc4)n3)cc2)SCOC(=O)CNC(=O)OCc2ccccc2)c(C)c1 [Compound 28C]				50 to 100%	50 to 100%	0 to 80%
CC(C)Cc1ccccc1N1CCS/C1=N\N=C\c1ccc(-c2ncn(-c3ccc(OC(F)(F)F)cc3)n2)cc1 [Compound 150C]	50 to 100%	50 to 100%	0%			
CCCc1ccccc1N1/C(=N/N=C/c2ccc(-c3ncn(-c4ccc(OC(F)(F)F)cc4)n3)cc2)SCC1(C)O (stereo not drawn) [Compound 256C]	50 to 100%	50 to 100%	0 to 80%			
CC(C)=Cc1ccccc1N1C(=O)CS/C1=N\N=C\c1ccc(-c2ncn(-c3ccc(OC(F)(F)F)cc3)n2)cc1 [Compound 121C]	50 to 100%	50 to 100%	0 to 80%			
